Measured values from paper PMC4827351 (Chemical Science, 2015).

How the values were obtained:
E. coli ATCC 25922 = experiment: SEM analysis of bacterial agglutination; format: cell-based, Escherichia coli; details: 3 µM proHD6 treated with trypsin before incubation (trypsin inactivated with APMSF), 30 min, 50 mM Tris-maleate pH 6.4
Procedure: (§1) Fig. 3 TEM analysis of HD6 self-assembly and SEM analysis of bacterial agglutination. Top row: transmission electron micrographs of 10 mM sodium phosphate pH 7.4 (control), 0.4 μM trypsin (control), 20 μM proHD6 in the absence and presence of 0.4 μM trypsin, and 20 μM HD6. All the samples were incubated at room temperature for 1 h. Scale bar = 100 nm. TEM images obtained using 10 mM Tris-maleate pH 6.4 are presented in Fig. S7. ^† Middle row: scanning electron micrographs of E. coli ATCC 25922 treated with 50 mM Tris-maleate pH 6.4 (control), 0.4 μM APMSF-inactivated trypsin (control), 3 μM proHD6, 3 μM trypsin-cleaved proHD6, or 3 μM HD6. Trypsin-cleaved proHD6 was prepared prior to incubation with the bacteria and the residual enzymatic activity was inhibited by APMSF (Experimental section). Following a 30 min incubation, the bacterial suspensions were centrifuged, fixed, and analyzed by SEM. Scale bar = 20 μm. Bottom row: SEM of L. monocytogenes ATCC19115 treated under the same conditions as in the middle row. Scale bar = 20 μm.
Bacteria were grown aerobically at 37 °C overnight in LB media. The next morning the strains were subcultured and grown to mid-logarithmic phase in LB media. […]

E. coli Nissle = experiment: SEM analysis of bacterial agglutination; format: cell-based, Escherichia coli; details: 3 µM proHD6 treated with trypsin before incubation (trypsin inactivated with APMSF), 30 min, 50 mM Tris-maleate pH 6.4
Procedure: Bacteria were grown aerobically at 37 °C overnight in LB media. The next morning the strains were subcultured and grown to mid-logarithmic phase in LB media. An aliquot of the bacteria (0.5–2 × 10^7 CFU mL^–1) was removed, sedimented by centrifugation (7000g × 2 min, 4 °C), washed twice with 50 mM Tris-maleate buffer, pH 6.4, and then resuspended in 0.5 mL of the 50 mM Tris-maleate buffer. The bacterial suspension was incubated at room temperature for 30 min with buffer control, 0.4 μM APMSF-inactivated trypsin, 3 μM proHD6, 3 μM trypsin-cleaved proHD6, or 3 μM HD6. Trypsin-cleaved proHD6 was prepared by incubating 30 μM proHD6 with 4 μM trypsin (Affimetrix, Santa Clara, CA) for 1 h at room temperature in 50 mM Tris-maleate buffer, pH 6.4. At the end of incubation, the trypsin was inactivated by addition of APMSF (p-amidinophenylmethylsulfonylfluoride HCl, Millipore, 25 μg mL^–1), and the mixture was added to the bacterial suspension. The APMSF-inactivated trypsin was similarly prepared, except that proHD6 was omitted from the preincubation. After a 30 min incubation, the treated bacterial suspensions were sedimented by centrifugation (7000g × 5 min, 4 °C), and the buffer supernatant was carefully removed. […]

[1] = Negative-staining TEM of peptide self-assembly; format: physicochemical; details: for fibrils (TEM), time course of trypsin treatment: room temperature, 10 mM sodium phosphate pH 7.4
Procedure: as §1
The samples for TEM were prepared by following a literature protocol.[15] For each sample, a 5 μL aliquot of peptide solution (20 μM in 10 mM sodium phosphate pH 7.4 or 10 mM Tris-maleate pH 6.4) was placed onto the carbon-coated surface of a copper grid (400 square mesh, Electron Microscopy Sciences). After 1 min, the grid was washed with a 5 μL aliquot of Milli-Q water, stained with a 5 μL aliquot of 2% uranyl acetate (UA, Electron Microscopy Sciences) in Milli-Q water three times, and air-dried for at least 15 min before imaging. A FEI Technai Spirit Transmission Electron Microscope was employed for all TEM imaging (W.M. Keck Microscopy Facility, Whitehead Institute, Cambridge, MA). TEM images were obtained with at least two independently prepared peptides and representative images are presented.
Figure S7. TEM analysis of trypsin-catalyzed proteolysis of proHD6 in Tris-maleate buffer.
Transmission electron micrographs of 10 mM Tris- maleate pH 6.4 (control), 0.4 µM trypsin (control), 20 µM proHD6 in the absence and presence of 0.4 µM trypsin, and 20 µM HD6. All samples were incubated at room temperature for 1 h. Scale bar = […].
Figure S8. Time course of trypsin-catalyzed proteolysis of proHD6 monitored by TEM.
Transmission electron micrographs of 20 µM proHD6 after treatment with 0.4 µM trypsin at room temperature for the indicated time. All the samples were in 10 mM sodium phosphate […]

Which “bacterial agglutination (SEM), trypsin-cleaved” value (E. coli ATCC 25922) does the source give for “EPLQAEDDPLQAKAYEADAQEQRGANDQDFAVSFAEDASSSLRALGSTRAFTCHCRRSCYSTEYSYGTCTVMGINHRFCCL (disulfide (positions not given here)) [proHD6, 81-residue propeptide of human α-defensin 6, recombinant, from His6-SUMO-proHD6]” here?
The value was “entangled and agglutinated E. coli”.

What about the “bacterial agglutination (SEM), trypsin-cleaved” value (E. coli Nissle) of the same sequence?
The value was “entangled and agglutinated E. coli”.

And the “formation of higher-order oligomers (TEM)” value ([1]; 20 µM peptide, 10 mM sodium phosphate pH 7.4 or 10 mM Tris-maleate pH 6.4, room temperature 1 h, no trypsin)?
The value was “no evidence for the formation of higher-order oligomers”.

And the “fibrils (TEM), time course of trypsin treatment” value ([1]; 20 µM proHD6 + 0.4 µM trypsin, 5 min)?
Its value is “relatively short fibrils”.

And the “fibrils (TEM), time course of trypsin treatment” value ([1]; 20 µM proHD6 + 0.4 µM trypsin, 60 min)?
Its value is “closely resembled those of mature HD6”.

What about the “formation of fibrils (TEM) after addition of trypsin” value ([1]; 20 µM proHD6 + 0.4 µM trypsin, room temperature 1 h, 10 mM sodium phosphate pH 7.4 or 10 mM Tris-maleate pH 6.4) of the same sequence?
Its value is “fibril-like features comparable to those observed for the mature HD6 peptide”.
